Experiments:
[1] = molecular target: Bn-VAKGL pentapeptide of filamin A (FLNA) (Homo sapiens, UniProt P21333); test: FITC-NLX-based FLNA screening assay (FLNA peptide binding assay); conditions: for Percent inhibition of FITC-NLX binding, 0.01 μM: 0.01 μM compound; for Percent inhibition of FITC-NLX binding, 0.01 μM / Percent inhibition of FITC-NLX binding, 0.1 μM / Percent inhibition of FITC-NLX binding, 1 μM: 10 nM FITC-NLX; for Percent inhibition of FITC-NLX binding, 0.1 μM: 0.1 μM compound; for Percent inhibition of FITC-NLX binding, 1 μM: 1 μM compound
Experimental: The final assay volume is 100 μl.
Compounds are tested in triplicate or quadruplicate.

mu opiate receptor (MOR) = molecular target: T1, mu opiate receptor (MOR) (Rattus norvegicus, UniProt P33535); test: [35S]GTPγS binding assay using striatal membranes (MOR agonist activity); format: biochemical; parameters: MOR agonist activity, [35S]GTPγS binding to Gαo, 0.1 μM / MOR agonist activity, [35S]GTPγS binding to Gαo, 1 μM / MOR agonist activity, [35S]GTPγS binding to Gαo, 1 μM + BFNA: reference not given here; conditions: for MOR agonist activity, [35S]GTPγS binding to Gαo, 0.1 μM: 0.1 μM compound; for MOR agonist activity, [35S]GTPγS binding to Gαo, 0.1 μM / MOR agonist activity, [35S]GTPγS binding to Gαo, 1 μM: striatal membranes; for MOR agonist activity, [35S]GTPγS binding to Gαo, 1 μM + BFNA: 1 μM compound + 1 μM β-funaltrexamine; for MOR agonist activity, [35S]GTPγS binding to Gαo, 1 μM: 1 μM compound
T1 construct: from tissue; host or cells: striatal tissue (membrane preparation)
T1 sequence (P33535 whole entry): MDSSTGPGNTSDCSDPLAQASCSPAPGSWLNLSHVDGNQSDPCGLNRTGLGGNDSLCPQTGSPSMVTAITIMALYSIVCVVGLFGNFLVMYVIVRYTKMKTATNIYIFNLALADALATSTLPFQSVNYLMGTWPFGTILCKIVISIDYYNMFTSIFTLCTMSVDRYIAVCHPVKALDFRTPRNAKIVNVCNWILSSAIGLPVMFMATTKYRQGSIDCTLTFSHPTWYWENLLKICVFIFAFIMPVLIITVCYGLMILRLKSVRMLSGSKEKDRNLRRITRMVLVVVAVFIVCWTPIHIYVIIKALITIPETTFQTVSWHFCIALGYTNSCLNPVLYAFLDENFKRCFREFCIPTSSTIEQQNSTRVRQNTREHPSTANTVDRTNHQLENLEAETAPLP
Experimental: To assess the mu opiate receptor (MOR) agonist activity of positive compounds from the FLNA screening, compounds were tested in a [^35S]GTPγS binding assay using striatal membranes. Our previous study has shown that in striatal membranes, activation of MOR leads to an increase in [^35S]GTPγS binding to Gαo (Wang et al., 2005 Neuroscience 135:247-261).
Striatal tissue was homogenized in 10 volumes of ice cold 25 mM HEPES buffer, pH 7.4, which contained 1 mM EGTA, 100 mM sucrose, 50 μg/ml leupeptin, 0.04 mM PMSF, 2 μg/ml soybean trypsin inhibitor and 0.2% 2-mercaptoethanol. The homogenates were centrifuged at 800×g for 5 minutes and the supernatants were centrifuged at 49,000×g for 20 minutes. The resulting pellets were suspended in 10 volume of reaction buffer, which contained 25 mM HEPES, pH 7.5, 100 mM NaCl, 50 μg/ml leupeptin, 2 μg/ml soybean trypsin inhibitor, 0.04 mM PMSF and 0.02% […].
The resultant striatal membrane preparation (200 μg) was admixed and maintained (incubated) at 30° C. for 5 minutes in reaction buffer as above that additionally contained 1 mM MgCl2 and 0.5 nM [^35S]GTPγS (0.1 μCi/assay, PerkinElmer Life and Analytical Sciences) in a total volume of 250 μl and continued for 5 minutes in the absence or presence of 0.1-10 μM of an assayed compound of interest. The reaction was terminated by dilution with 750 μl of ice-cold reaction buffer that contained 20 mM MgCl2 and 1 mM EGTA and immediate centrifugation at 16,000×g for 5 minutes.
The resulting pellet was solubilized by sonicating for 10 seconds in 0.5 ml of immunoprecipitation buffer containing 0.5% digitonin, 0.2% sodium cholate and 0.5% NP-40. Normal rabbit serum (1 μl) was added to 1 ml of lysate and incubated at 25° C. for 30 minutes. Nonspecific immune complexes were removed by incubation with 25 μl of protein A/G-conjugated agarose beads at 25° C. for 30 minutes followed by centrifugation at 5,000×g at 4° C. for 5 minutes. The supernatant was divided and separately incubated at 25° C. for 30 minutes with antibodies raised against Gαo proteins (1:1,000 dilutions).
The immunocomplexes so formed were collected by incubation at 25° C. for 30 minutes with 40 μl of agarose-conjugated protein A/G beads and centrifugation at 5,000×g at 4° C. for 5 minutes. The pellet was washed and suspended in buffer containing 50 mM Tris-HCl, pH 8.0, and 1% NP-40. The radioactivity in the suspension was determined by liquid scintillation spectrometry. […] DAMGO (H-Tyr-D-Ala-Gly-N-MePhe-Gly-OH; 1 or 10 μM) was used as a positive control.

SMILES	Percent inhibition of FITC-NLX binding, 0.01 μM [1] [%]	Percent inhibition of FITC-NLX binding, 0.1 μM [1] [%]	Percent inhibition of FITC-NLX binding, 1 μM [1] [%]	MOR agonist activity, [35S]GTPγS binding to Gαo, 0.1 μM (mu opiate receptor (MOR)) [%]	MOR agonist activity, [35S]GTPγS binding to Gαo, 1 μM + BFNA (mu opiate receptor (MOR)) [%]	MOR agonist activity, [35S]GTPγS binding to Gαo, 1 μM (mu opiate receptor (MOR)) [%]	inhibition at 0.01 µM ([1]; read-out: Percent inhibition of FITC-NLX binding, 0.01 μM) [%]	inhibition at 0.1 µM ([1]; read-out: Percent inhibition of FITC-NLX binding, 0.1 μM) [%]	inhibition at 1 µM ([1]; read-out: Percent inhibition of FITC-NLX binding, 1 μM) [%]
COc1c2c(cc3c1C(CC(=O)Cc1ccccc1Cl)[N+](C)(C)CC3)OCO2.[I-] (stereo not drawn) [B0039]	43.3	45.7	50.9	171.8	78.3	290.5	–	–	–
COc1ccccc1CC(O)CC1c2c(cc3c(c2OC)OCO3)CC[N+]1(C)C.[I-] (stereo not drawn) [B0032]	45.1	51.3	48.9	221.1	15.6	297.7	–	–	–
COc1cccc(CCC(=O)CC2c3c(cc4c(c3OC)OCO4)CC[N+]2(C)C)c1 (stereo not drawn) [B0034]	49.1	54.2	59.1	122.5	41.8	235.2	–	–	–
COc1ccc(C(=O)CC2c3c(cc4c(c3OC)OCO4)CC[N+]2(C)C)cc1OC.[I-] (stereo not drawn) [B0026]	41.1	43.3	48.2	152.0	28.8	233.3	–	–	–
COc1c2c(cc3c1C(CC(=O)c1ccc(F)c(F)c1)[N+](C)(C)CC3)OCO2 (stereo not drawn) [B0003]	–	–	–	103.0	18.6	131.1	45.4	52.9	63.5
COc1ccc(C(=O)CC2c3c(cc4c(c3OC)OCO4)CC[N+]2(C)C)cc1C.[I-] (stereo not drawn) [B0021]	32.5	43.1	47.6	126.9	42.9	256.4	–	–	–
COc1ccc(CCC(=O)CC2c3c(cc4c(c3OC)OCO4)CC[N+]2(C)C)c(OC)c1 (stereo not drawn) [B0043]	30.8	39.2	46.8	74.8	166.4	248.1	–	–	–
COc1ccc(CC(=O)CC2c3c(cc4c(c3OC)OCO4)CC[N+]2(C)C)c(OC)c1 (stereo not drawn) [B0029]	33.4	42.9	50.2	171.9	17.6	210.3	–	–	–
COCOc1ccc(C(=O)CC2c3c(cc4c(c3OC)OCO4)CC[N+]2(C)C)cc1C.[I-] (stereo not drawn) [B0041]	44.0	46.8	52.8	61.6	41.9	109.3	–	–	–
COc1c2c(cc3c1C(CC(=O)CCc1ccccc1)N(C)CC3)OCO2 (stereo not drawn) [B0050]	29.2	34.5	39.8	98.2	48.8	211.0	–	–	–
COc1c2c(cc3c1C(CC(=O)c1ccncc1)[N+](C)(C)CC3)OCO2 (stereo not drawn) [B0005]	31.8	34.8	41.7	89.2	45.1	110.4	–	–	–
CCOc1ccc(C(=O)CC2c3c(cc4c(c3OC)OCO4)CC[N+]2(C)C)cc1F (stereo not drawn) [B0020]	38.1	45.5	50.6	51.6	24.9	181.6	–	–	–
COc1ccc(OC)c(CCC(=O)CC2c3c(cc4c(c3OC)OCO4)CC[N+]2(C)C)c1 (stereo not drawn) [B0044]	35.2	39.5	44.4	87.3	134.6	170.0	–	–	–
COc1ccc(C(=O)CC2c3c(cc4c(c3OC)OCO4)CC[N+]2(C)C)c(O)c1.[I-] (stereo not drawn) [B0033]	42.1	46.8	49.4	149.3	41.9	188.9	–	–	–
COc1c2c(cc3c1C(CC(=O)Cc1ccc(Br)cc1)[N+](C)(C)CC3)OCO2 (stereo not drawn) [B0011]	40.9	50.3	55.8	158.6	78.0	212.6	–	–	–
COc1c2c(cc3c1C(CC(O)CCc1ccccc1)N(C)CC3)OCO2 (stereo not drawn) [B0051]	29.9	35.7	43.7	115.6	43.8	161.9	–	–	–
COc1ccc(C(=O)CC2c3c(cc4c(c3OC)OCO4)CC[N+]2(C)C)cc1 (stereo not drawn) [B0024]	34.8	43.4	47.7	155.8	20.2	285.9	–	–	–
COc1ccc(C(=O)CC2c3c(cc4c(c3OC)OCO4)CC[N+]2(C)C)c(F)c1.[I-] (stereo not drawn) [B0027]	40.2	46.7	49.8	140.9	21.6	266.9	–	–	–
COc1ccccc1CC(O)CC1c2c(cc3c(c2OC)OCO3)CCN1C (stereo not drawn) [B0030]	47.0	50.5	57.6	107.2	90.1	276.1	–	–	–

Source: patent US20100280061A1, “NOVEL ANALGESIC THAT BINDS FILAMIN A” (priority 2009, published 2010)
